Results: US20190192548A1, “USE OF CYCLIC PHOSPHATE SUBSTITUTED NUCLEOSIDE DERIVATIVESFOR THE TREATMENT OF VIRAL DISEASES” (MERCK SHARP & DOHME CORP., priority 2016, published 2019)
Where two headings read alike, the source gives them in different places.

Legend:
[1] = tested on: replicon cells (1b-Con1); experiment: Replicon activity assay (cell-based anti-HCV activity, replicon RNA by real-time RT-PCR)
Description: To measure cell-based anti-HCV activity of the compounds of the present invention, replicon cells (1b-Con1) are seeded at 5000 cells/well in 96-well plates one day prior to treatment with a compound of the invention. Various concentrations of a test compound of the invention in DMSO are then added to the replicon cells, with the final concentration of
(§1) DMSO at 0.5% and fetal bovine serum at 10% in the assay media. Cells are harvested three days post-dosing, and the replicon RNA level is determined using real-time RT-PCR (Taqman assay) with GAPDH RNA as endogenous control. EC50 values are calculated from experiments with 10 serial twofold dilutions of the inhibitor in triplicate. To measure cytotoxicity in replicon cells of an inhibitor, an MTS assay is performed according to the manufacturer's protocol for CellTiter 96 Aqueous One Solution Cell Proliferation Assay (Promega, Cat # G3580) three days post dosing on cells treated identically as in replicon activity assays. […] Cytotoxicity in other types of cells may be measured using the same MTS protocol.
(§2) Data were obtained using this method for selected compounds of the present invention, and are set forth below in Table 1.

[2] = Cytotoxicity assay in replicon cells (MTS, CellTiter 96); type: cell-based; conditions: three days post dosing, read-out: CC50 (EDU) Range
Description: as §1, §2

[3] = tested on: replicon cells; experiment: as above; type: cell-based; conditions: three days post dosing, read-out: CC50 (EDU) Range
Description: as §1, §2

[4] = Hepatitis C virus, 72 h, read-out: EC50 (1b) Range, replicon cells (1b-Con1), replicon RNA level three days post-dosing, GAPDH RNA as control
[5] = read-out: EC50 (1b) Range, replicon cells (1b-Con1), replicon RNA level three days post-dosing, GAPDH RNA as control

Row | SMILES | EC50 [1, 4] | CC50 at 3 days [2] | EC50 [1, 5] | CC50 [3]
1 | CC(C)OC(=O)[C@H](C)CCOP1(=O)OC[C@H]2O[C@@H](n3ccc(N)nc3=O)C(F)(F)[C@@H]2O1 (single isomer, unassigned) [Compound 7 Diastereomer 1] | 250 to 1000 nM | ≤ 50000 nM |  | 
2 | CC(C)OC(=O)[C@H](C)CCOP1(=O)OC[C@H]2O[C@@H](n3ccc(N)nc3=O)C(F)(F)[C@@H]2O1 (single isomer, unassigned) [Compound 7 Diastereomer 2] |  |  | < 250 nM | ≤ 50000 nM
3 | CC(C)OC(=O)[C@@H](C)CCOP1(=O)OC[C@H]2O[C@@H](n3ccc(N)nc3=O)C(F)(F)[C@@H]2O1 (single isomer, unassigned) [Compound 8 Diastereomer 2] |  |  | 250 to 1000 nM | ≤ 50000 nM
4 | CCOC(=O)[C@@H](C)CCOP1(=O)OC[C@H]2O[C@@H](n3ccc(N)nc3=O)C(F)(F)[C@@H]2O1 (single isomer, unassigned) [Compound 9 Diastereomer 2] |  |  | 250 to 1000 nM | ≤ 50000 nM
5 | CCOC(=O)[C@H](C)CCOP1(=O)OC[C@H]2O[C@@H](n3ccc(N)nc3=O)C(F)(F)[C@@H]2O1 (single isomer, unassigned) [Compound 10 Diastereomer 2] |  |  | 250 to 1000 nM | ≤ 50000 nM
6 | CC(C)OC(=O)[C@@H](C)CCOP1(=O)OC[C@H]2O[C@@H](n3ccc(N)nc3=O)C(F)(F)[C@@H]2O1 (single isomer, unassigned) [Compound 8 Diastereomer 1] | 250 to 1000 nM | ≤ 50000 nM |  | 
7 | CCOC(=O)[C@H](C)CCOP1(=O)OC[C@H]2O[C@@H](n3ccc(N)nc3=O)C(F)(F)[C@@H]2O1 (single isomer, unassigned) [Compound 10 Diastereomer 1] | 250 to 1000 nM | ≤ 50000 nM |  | 
8 | CCOC(=O)[C@@H](C)CCOP1(=O)OC[C@H]2O[C@@H](n3ccc(N)nc3=O)C(F)(F)[C@@H]2O1 (single isomer, unassigned) [Compound 9 Diastereomer 1] | 250 to 1000 nM | ≤ 50000 nM |  | 
